Molecules are shown by their SMILES.

For the first assay, the system named is IL-1β release from THP-1 cells. The assay can be described thus: IL-1β Release Assay (Alternate Method), THP-1 cells. In kind it is cell-based, human. Conditions: Homo sapiens, THP-1, read-out: IL-1β % inhibition. The method, boiled down: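 THP-1 cells differentiated 16 h with 100 ng/mL LPS plus 100 ng/mL IFN-γ, reprimed 2 h with 100 ng/mL LPS, pretreated 30 min with compound, then challenged 45 min with 250 uM BzATP (final). Supernatant IL-1β quantified by ELISA; percent inhibition from background-adjusted levels versus untreated cells.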
On to `O=C(Nc1ncnc2c1CCN(S(=O)(=O)c1ccccc1)C2)C12CC3CC(CC(C3)C1)C2` [Compound 481], for which the inhibition (as a rule, the percentage by which the read-out fell short of the control) at 0.3 µM lay in the range of 25 to 50%.

The same assay, now with this note: Homo sapiens; at 0.3 μM; THP-1 cells; read-out: IL-1β % inhibition.
In the case of `COCC(O)CN1CCc2c(ncnc2NC(=O)CC23CC4CC(CC(C4)C2)C3)C1` (stereo not shown) [Compound 13, 2-adamantan-1-yl-N-[7-(2-hydroxy-3-methoxy-propyl)-5,6,7,8-tetrahydro-pyrido[3,4-d]pyrimidin-4-yl]-acetamide], the inhibition at 0.3 µM fell in the range of 0 to 25%.
For `O=C(NCC12CC3CC(CC(C3)C1)C2)c1ncnc2c1CCN(Cc1ccc(F)cc1F)C2` [Compound 137], the inhibition at 0.3 µM fell in the range of 50 to 75%.

Still in this assay, the particulars now being: at 0.3 μM; THP-1 cells.
As to `O=C(CC12CC3CC(CC(C3)C1)C2)Nc1ncnc2c1CCN(S(=O)(=O)c1ccccc1F)C2` [Compound 166], the IL-1β % inhibition entry is recorded as “++ (compound exhibited 25-50% inhibition at 0.3 μM)”.
On the same count and under the same terms, to `Cc1ccc(CN2CCc3c(ncnc3NC(=O)CC34CC5CC(CC(C5)C3)C4)C2)c(C)c1` [Compound 320] belongs “+ (compound exhibited 0-25% inhibition at 0.3 μM)”; to `O=C(CC12CC3CC(CC(C3)C1)C2)Nc1ncnc2c1CCN(C(=O)c1cc(C(F)(F)F)ccc1Cl)C2` [Compound 271], “++++ (compound exhibited 75% or greater inhibition at 0.3 μM)”; to `CC12CC3CC(C)(C1)CC(CC(=O)Nc1ncnc4c1CCN(Cc1ccc(F)cc1)C4)(C3)C2` [Compound 376], “++ (compound exhibited 25-50% inhibition at 0.3 μM)”.
On to `O=C(CC12CC3CC(CC(C3)C1)C2)Nc1ncnc2c1CCN(Cc1ccccc1OC(F)(F)F)C2` [Compound 76], for which the IL-1β % inhibition result is listed as “+ (compound exhibited 0-25% inhibition at 0.3 μM)”.
For `O=C(CC12CC3CC(CC(C3)C1)C2)Nc1ncnc2c1CCN(S(=O)(=O)Cc1ccc(Cl)c(Cl)c1)C2` [Compound 185], the IL-1β % inhibition entry is “++ (compound exhibited 25-50% inhibition at 0.3 μM)”.
Take `Cc1cc(C(=O)N2CCc3c(ncnc3NC(=O)CC34CC5CC(CC(C5)C3)C4)C2)n(C(C)(C)C)n1` [Compound 300]: the IL-1β % inhibition result is “+ (compound exhibited 0-25% inhibition at 0.3 μM)”.
`Cc1ccc(CN2CCc3c(ncnc3C(=O)NCC3CCCCC3)C2)cc1` [Compound 55]: the IL-1β % inhibition result is on record as “+ (compound exhibited 0-25% inhibition at 0.3 μM)”.
As to `Cc1ccc(CN2CCc3c(ncnc3NC(=O)CC34CC5CC(CC(C5)C3)C4)C2)cc1` [Compound 44], the IL-1β % inhibition entry is “+ (compound exhibited 0-25% inhibition at 0.3 μM)”.
For the compound `O=C(CC12CC3CC(CC(C3)C1)C2)Nc1ncnc2c1CCN(S(=O)(=O)c1cc(Cl)cc(Cl)c1)C2` [Compound 208], the IL-1β % inhibition entry was “+++ (compound exhibited 50-75% inhibition at 0.3 μM)”.
On to `O=C(CC12CC3CC(CC(C3)C1)C2)Nc1ncnc2c1CCN(S(=O)(=O)Cc1ccccc1)C2` [Compound 153], for which the IL-1β % inhibition result was “++++ (compound exhibited 75% or greater inhibition at 0.3 μM)”.
On to `O=C(CC12CC3CC(CC(C3)C1)C2)Nc1ncnc2c1CCN(S(=O)(=O)c1ccc(Oc3ccccn3)cc1)C2` [Compound 172], for which the IL-1β % inhibition entry was “+++ (compound exhibited 50-75% inhibition at 0.3 μM)”.
As to `Cc1cccc(C(=O)N2CCc3c(ncnc3NC(=O)CC34CC5CC(CC(C5)C3)C4)C2)c1` [Compound 230], the IL-1β % inhibition entry is “++++ (compound exhibited 75% or greater inhibition at 0.3 μM)”.
Same read-out and setting: as for `Cc1cc(C)cc(S(=O)(=O)N2CCc3c(ncnc3NC(=O)CC34CC5CC(CC(C5)C3)C4)C2)c1` [Compound 217], the entry is “+ (compound exhibited 0-25% inhibition at 0.3 μM)”.
The same measure, in the same setting: as for `O=C(CC12CC3CC(CC(C3)C1)C2)Nc1ncnc2c1CCN(S(=O)(=O)c1cc(Cl)ccc1Cl)C2` [Compound 204], the entry is “+ (compound exhibited 0-25% inhibition at 0.3 μM)”; as for `CC12CC3CC(C)(C1)CC(CC(=O)Nc1ncnc4c1CCN(C(=O)c1ccc(Cl)c(Cl)c1)C4)(C3)C2` [Compound 385], “+ (compound exhibited 0-25% inhibition at 0.3 μM)”; as for `CC(C)(C)CC(=O)N1CCc2c(ncnc2NC(=O)C(C)(C)C23CC4CC(CC(C4)C2)C3)C1` [Compound 367], “+ (compound exhibited 0-25% inhibition at 0.3 μM)”.
In the case of `CC(C)(C(=O)Nc1ncnc2c1CCN(C(=O)c1cc(F)ccc1F)C2)C12CC3CC(CC(C3)C1)C2` [Compound 363], the IL-1β % inhibition result is recorded as “+ (compound exhibited 0-25% inhibition at 0.3 μM)”.
Take `O=C(NCC12CC3CC(CC(C3)C1)C2)c1ncnc2c1CCN(Cc1ccc3c(c1)OCO3)C2` [Compound 340]: the IL-1β % inhibition result is reported as “+++ (compound exhibited 50-75% inhibition at 0.3 μM)”.
For `N#Cc1cccc(C(=O)N2CCc3c(ncnc3NC(=O)CC34CC5CC(CC(C5)C3)C4)C2)c1` [Compound 242], the IL-1β % inhibition entry is reported as “+++ (compound exhibited 50-75% inhibition at 0.3 μM)”.
Turning to `CC(C)(C(=O)Nc1ncnc2c1CCN(S(=O)(=O)Cc1ccc(Cl)c(Cl)c1)C2)C12CC3CC(CC(C3)C1)C2` [Compound 356], the IL-1β % inhibition result is listed as “+ (compound exhibited 0-25% inhibition at 0.3 μM)”.
For `CC12CC3CC(C)(C1)CC(CC(=O)Nc1ncnc4c1CCN(S(=O)(=O)c1cccc(F)c1F)C4)(C3)C2` [Compound 381], the IL-1β % inhibition result is listed as “+ (compound exhibited 0-25% inhibition at 0.3 μM)”.
As for `COc1cc(CN2CCc3c(ncnc3NC(=O)CC34CC5CC(CC(C5)C3)C4)C2)cc(OC)c1` [Compound 37], the IL-1β % inhibition entry was “+ (compound exhibited 0-25% inhibition at 0.3 μM)”.
Regarding `O=C(CC12CC3CC(CC(C3)C1)C2)Nc1ncnc2c1CCN(C(=O)c1ccnc(Cl)c1)C2` [Compound 298], the IL-1β % inhibition entry is “++++ (compound exhibited 75% or greater inhibition at 0.3 μM)”.
`O=C(CC12CC3CC(CC(C3)C1)C2)Nc1ncnc2c1CCN(Cc1ccc3c(c1)CCO3)C2` [Compound 105]: the IL-1β % inhibition result is recorded as “+ (compound exhibited 0-25% inhibition at 0.3 μM)”.
As for `O=C(CC12CC3CC(CC(C3)C1)C2)Nc1ncnc2c1CCN(C(=O)c1ccc(F)cc1)C2` [Compound 251], the IL-1β % inhibition entry is “+ (compound exhibited 0-25% inhibition at 0.3 μM)”.
`O=C(CC12CC3CC(CC(C3)C1)C2)Nc1ncnc2c1CCN(S(=O)(=O)c1ccc(Oc3ccc(C(F)(F)F)cc3)cc1)C2` [Compound 177]: the IL-1β % inhibition result is reported as “++ (compound exhibited 25-50% inhibition at 0.3 μM)”.
In the case of `O=C(CC12CC3CC(CC(C3)C1)C2)Nc1ncnc2c1CCN(C(=O)c1ccc(F)c(F)c1)C2` [Compound 232], the IL-1β % inhibition entry is given as “+++ (compound exhibited 50-75% inhibition at 0.3 μM)”.
As to `Cc1cc(CN2CCc3c(ncnc3NC(=O)CC34CC5CC(CC(C5)C3)C4)C2)ccc1F` [Compound 86], the IL-1β % inhibition result is reported as “++ (compound exhibited 25-50% inhibition at 0.3 μM)”.
Same read-out and setting: as for `COc1ccc(C)cc1S(=O)(=O)N1CCc2c(ncnc2NC(=O)CC23CC4CC(CC(C4)C2)C3)C1` [Compound 214], the entry is “+ (compound exhibited 0-25% inhibition at 0.3 μM)”.
Consider `COCC(=O)N1CCc2c(ncnc2NC(=O)CC23CC4CC(CC(C4)C2)C3)C1` [Compound 240], for which the IL-1β % inhibition entry is given as “+ (compound exhibited 0-25% inhibition at 0.3 μM)”.
Regarding `COc1ccc(CN2CCc3c(ncnc3NC(=O)CC34CC5CC(CC(C5)C3)C4)C2)cc1OC` [Compound 36], the IL-1β % inhibition entry is “+ (compound exhibited 0-25% inhibition at 0.3 μM)”.
As to `O=C(CC12CC3CC(CC(C3)C1)C2)Nc1ncnc2c1CCN(S(=O)(=O)c1ccc(Oc3cccnc3)cc1)C2` [Compound 174], the IL-1β % inhibition entry is “++++ (compound exhibited 75% or greater inhibition at 0.3 μM)”.
On the same count and under the same terms, to `O=C(NCC1CCCCC1)c1ncnc2c1CCN(Cc1cccc(Cl)c1)C2` [Compound 53] belongs “+ (compound exhibited 0-25% inhibition at 0.3 μM)”.

Still in this assay, the particulars now being: at 0.3 μM; THP-1 cells, BzATP-stimulated.
On to `Cc1ccccc1C(=O)N1CCc2c(ncnc2NC(=O)C23CC4CC(CC(C4)C2)C3)C1` [Compound 450], for which the IL-1β % inhibition result is reported as “+ (compound exhibited 0-25% inhibition at 0.3 μM)”.
As for `O=C(Nc1ncnc2c1CCN(Cc1ccc(Cl)c(F)c1)C2)C12CC3CC(CC(C3)C1)C2` [Compound 611], the IL-1β % inhibition entry was “+++ (compound exhibited 50-75% inhibition at 0.3 μM)”.
Take `O=C(COc1ccccc1)N1CCc2c(ncnc2NC(=O)C23CC4CC(CC(C4)C2)C3)C1` [Compound 421]: the IL-1β % inhibition entry is reported as “+ (compound exhibited 0-25% inhibition at 0.3 μM)”.
For the compound `COc1cc(CN2CCc3c(ncnc3NC(=O)C34CC5CC(CC(C5)C3)C4)C2)ccc1F` [Compound 629], the IL-1β % inhibition result is on record as “+ (compound exhibited 0-25% inhibition at 0.3 μM)”.
As to `O=C(Nc1ncnc2c1CCN(Cc1cccc(Br)c1)C2)C12CC3CC(CC(C3)C1)C2` [Compound 614], the IL-1β % inhibition entry is “+ (compound exhibited 0-25% inhibition at 0.3 μM)”.
Take `O=C(Nc1ncnc2c1CCN(Cc1ccc(C(F)(F)F)cc1)C2)C12CC3CC(CC(C3)C1)C2` [Compound 604]: the IL-1β % inhibition result is “++++ (compound exhibited 75% or greater inhibition at 0.3 μM)”.
Take `O=C(Nc1ncnc2c1CCN(S(=O)(=O)c1c(F)cccc1F)C2)C12CC3CC(CC(C3)C1)C2` [Compound 540]: the IL-1β % inhibition entry is “+ (compound exhibited 0-25% inhibition at 0.3 μM)”.
In the case of `COc1ccccc1CN1CCc2c(ncnc2NC(=O)C23CC4CC(CC(C4)C2)C3)C1` [Compound 615], the IL-1β % inhibition entry is reported as “+++ (compound exhibited 50-75% inhibition at 0.3 μM)”.
`O=C(Nc1ncnc2c1CCN(S(=O)(=O)c1cccc(C(F)(F)F)c1)C2)C12CC3CC(CC(C3)C1)C2` [Compound 492]: the IL-1β % inhibition entry is recorded as “+++ (compound exhibited 50-75% inhibition at 0.3 μM)”.
On the same count and under the same terms, as for `O=C(Nc1ncnc2c1CCN(Cc1ccc(C(F)(F)F)cc1F)C2)C12CC3CC(CC(C3)C1)C2` [Compound 612], the entry is “++++ (compound exhibited 75% or greater inhibition at 0.3 μM)”.
With `O=C(Nc1ncnc2c1CCN(Cc1ccc(Cl)cc1Cl)C2)C12CC3CC(CC(C3)C1)C2` [Compound 570], the IL-1β % inhibition entry is recorded as “++ (compound exhibited 25-50% inhibition at 0.3 μM)”.
Consider `N#Cc1cccc(C(=O)N2CCc3c(ncnc3NC(=O)C34CC5CC(CC(C5)C3)C4)C2)c1` [Compound 414], for which the IL-1β % inhibition result was “++ (compound exhibited 25-50% inhibition at 0.3 μM)”.

(Values after patent US7297700B2, “Bicycloheteroaryl compounds as P2X7 modulators and uses thereof” (Renovis, Inc., priority 2005, dated 2007).)
